Measured values published in patent publication US20100234766A1, “Topical administration of a salt compound to facilitate venipuncture” (priority 2006, published 2010).

Key:
vein of the inner elbow = test: Vein diameter from visible light images after swabbing, arm stationary (Examples 3 and 4); conditions: for AVERAGE % CHANGE IN VEIN DIAMETER: nine minutes following application; for Diameter Post-Application / Diameter Pre-Application / Percent change (vein diameter): Example 3; for Diameter Post-Application: endpoint image nine minutes following application, concentration as in test agent label; for Diameter Pre-Application: initial image prior to application of test agent (baseline); for Percent change (vein diameter): nine minutes following application versus pre-application; for vasodilation of the vein of the elbow (in words): summary of Table 4, salts at 10 mM;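 for all read-outs here: agents applied to skin over the inner elbow vein with the arm resting still on a table, diameter read in pixels from images taken before and nine minutes after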
Experimental: Studies in Example 2 were performed except that the vein of the inner elbow, the site most frequently used for phlebotomy, was evaluated and vein diameter was measured from enlarged, sequential, visible light images. […] Instead the response to swabbing was recorded with the arm in a stationary position resting on a table top.
The initial image was taken prior to application of each test agent. The endpoint image was taken nine minutes following application of the test agent. The vein diameters were measured in pixels.
The procedure of Example 3 was repeated utilizing swabs impregnated with various salt compounds on one to three adult male and female subjects. Each test compound was applied to the skin overlying the vein of the inner elbow. The initial image was taken prior to application of each test agent. The endpoint image was taken nine minutes following application of the test agent. The vein diameters were measured in pixels.

dorsal hand veins = test: Infrared thermal imaging of dorsal hand veins after swabbing and hand elevation (Example 2); assay type: in vivo, human
Experimental: Infrared (IR) thermal imaging utilizing a standardized, calibrated infrared (950 nm wavelength) camera acquiring electronic images and providing color coded maps for testing effects of test vasodilator chemical compounds on dorsal hand veins was performed in three male and two female healthy volunteers. Infrared was utilized to determine the degree to which the test chemical compounds cause vasodilation because infrared provides a measure of thermal gradient and diameter that correlates well with visual indications of increased venous size and with successful first attempt venipuncture. Test agents were applied by swabbing the target area for about 30 seconds. A baseline control without application of any swab or by swabbing with a placebo swab containing no liquid was performed at the start of each test as a basis to compare imaging of the vein dilator dependent filling. IR images were obtained using a standardized, calibrated infrared (950 nm wavelength) camera that acquired an electronic image and provided a color coded thermal map. […] The swab was rubbed onto the dorsal surface of a hand of each subject and then the hand was elevated for 2 minutes after which the hand was returned to a horizontal position. IR imaging was performed on the dorsum of the hand before elevation and at intervals following the return to the horizontal position.

[1] = tested on: veins visible on the dorsum of the hand; test: Peripheral venous filling time after topical application (Example 1); assay type: in vivo, human; conditions: for VENOUS FILL TIME: average of two subjects; for effect on venous fill time (in words): topical application, dorsum of hand, summary of Table 1
Experimental: Several studies were conducted to determine the effect of topically applied compounds on peripheral venous filling. The same two healthy adult male volunteer subjects were used for each of the studies.
In each study, a baseline value for peripheral venous filling time was determined as follows. Each subject held their outstretched arm vertically with hand directed upwards toward the ceiling for a period of time sufficient to cause the veins visible on the dorsum of the hand to attain their minimum dilation. Then, the subject lowered their hand and held their outstretched arm vertically with hand directed downwards toward the floor for a period of time sufficient to cause the veins visible on the dorsum of the hand to attain their maximum dilation. The time for the veins to attain maximum dilation following the lowering of the hands was measured.
This procedure was repeated following application of a test compound to the site of visible veins on the dorsum of the hands in order to determine the effect of the test compound on venous filling. Longer venous filling times are indicative of vasodilation and increased pooling of blood within the vein.

[2] = Example 4, 10 mM, one to three subjects
[3] = Study 4, baseline (none) 39 sec, MgSO4 10 mM
[4] = Study 1, baseline (none) 54 sec, EtOH 70%, MgCl2 100 mM
[5] = Study 3, baseline (none) 51 sec, EtOH 70%, MgSO4 10 mM

`CC(=O)[O-].CC(=O)[O-].[Mn+2]` [10 mM Mn acetate, Mn acetate] was tested, and the “AVERAGE % CHANGE IN VEIN DIAMETER” value (vein of the inner elbow; [2]) was 0.0%.

For `CC(C)O` [Isopropyl alcohol, isopropyl alcohol, reference compound], the “effect on dorsal hand veins on IR examination (in words), early” value (dorsal hand veins; Example 2a, compared to dry swab control, 30 seconds following return to horizontal, 70% isopropyl alcohol) was “initial vasoconstriction with reduced filling of the veins on the dorsum of the hand”, the “VENOUS FILL TIME” value [1, 3] was 69 s and the “% CHANGE FROM BASELINE (venous fill time)” value (shortened to “% CHANGE FROM BASELINE”) [1, 3] was 76%. For the same compound, the “effect on venous fill time (in words)” value [1] was “increased venous fill time”, the “Diameter Post-Application” value (vein of the inner elbow) was 55.04 pixels and the “Diameter Pre-Application” value (vein of the inner elbow) was 57.78 pixels. The “Percent change (vein diameter)” value (vein of the inner elbow) was “(−4.74) Percent”, the “AVERAGE % CHANGE IN VEIN DIAMETER” value (vein of the inner elbow; Example 4, 70%) was −13.2% and the “vasodilation of the vein of the elbow (in words)” value (from here on “vasodilation”) (vein of the inner elbow; Example 4) was “constriction of the underlying vein”.

With `O=S(=O)([O-])[O-].[Mg+2]` [MgSO4, magnesium sulfate] the “Increase in Venous Diameter Following Hand Elevation” value (dorsal hand veins; MgSO4 10 mM in water, benzalkonium chloride 1%, maximal dilation after return to horizontal, control (dry swab) <10%) was 30%, the “effect on venous fill time (in words)” value [1] was “substantial increases in venous filling time compared to baseline control” and the “Diameter Post-Application” value (vein of the inner elbow) was 73.06 pixels. For the same compound, the “Diameter Pre-Application” value (vein of the inner elbow) was 65.86 pixels, the “Percent change (vein diameter)” value (vein of the inner elbow) was 10.93% and the “AVERAGE % CHANGE IN VEIN DIAMETER” value (vein of the inner elbow; [2]) was 30.0%. The “AVERAGE % CHANGE IN VEIN DIAMETER” value (vein of the inner elbow; Example 4, 100 mM) was 25.2%, the “AVERAGE % CHANGE IN VEIN DIAMETER” value (vein of the inner elbow; Example 4, 1 M) was 22.9% and the optimal concentration (vein of the inner elbow; Example 4, from 10 mM, 100 mM and 1 M tested) was 10 mM. For the same compound, the “vasodilation” value (vein of the inner elbow; Example 4) was “powerful vasodilator”.

In the case of `[Cl-].[Cl-].[Sr+2]` [10 mM SrCl2, SrCl2], the “AVERAGE % CHANGE IN VEIN DIAMETER” value (vein of the inner elbow; [2]) is reported as −6.0% and the “vasodilation” value (vein of the inner elbow; Example 4) is reported as “did not show vasodilation”.

With `CC(=O)[O-].CC(=O)[O-].[Mg+2]` [10 mM Mg acetate, Mg acetate] the “AVERAGE % CHANGE IN VEIN DIAMETER” value (vein of the inner elbow; [2]) was 27.9%.

In the case of `O=S(=O)([O-])[O-].[Cu+2]` [10 mM CuSO4, CuSO4], the “AVERAGE % CHANGE IN VEIN DIAMETER” value (vein of the inner elbow; [2]) is reported as 20.95%.

In the case of `O=S(=O)([O-])[O-].[Zn+2]` [10 mM ZnSO4, ZnSO4], the “AVERAGE % CHANGE IN VEIN DIAMETER” value (vein of the inner elbow; [2]) is reported as −4.4% and the “vasodilation” value (vein of the inner elbow; Example 4) is reported as “failed to demonstrate vasodilation”.

`CCO` [EtOH, ethyl alcohol] was tested, and the “VENOUS FILL TIME” value [1, 4] was 59 s, the “% CHANGE FROM BASELINE” value [1, 4] was 9% and the “VENOUS FILL TIME” value [1, 5] was 38 s. The “% CHANGE FROM BASELINE” value [1, 5] was “(−25) %”, the “decrease in fill time” value ([1]; study 3, EtOH 70%, versus baseline) was 25% and the “effect on venous fill time (in words)” value [1] was “no effect on venous fill time”.

`[Cl][Mn][Cl]` [10 mM MnCl2, MnCl2] was tested, and the “AVERAGE % CHANGE IN VEIN DIAMETER” value (vein of the inner elbow; [2]) was 2.7% and the “vasodilation” value (vein of the inner elbow; Example 4) was “mild vasodilation”.

With `CC(=O)[O-].CC(=O)[O-].[Ca+2]` [10 mM Ca acetate, Ca acetate] the “AVERAGE % CHANGE IN VEIN DIAMETER” value (vein of the inner elbow; [2]) was −0.5% and the “vasodilation” value (vein of the inner elbow; Example 4) was “did not show vasodilation”.

For “benzalkonium chloride [1% benzalkonium chloride, reference compound]”, the “Diameter Post-Application” value (vein of the inner elbow) was 37.80 pixels, the “Diameter Pre-Application” value (vein of the inner elbow) was 34.41 pixels and the “Percent change (vein diameter)” value (vein of the inner elbow) was 9.85%.

For `O=S(=O)([O-])[O-].[Sr+2]` [10 mM SrSO4, SrSO4], the “AVERAGE % CHANGE IN VEIN DIAMETER” value (vein of the inner elbow; [2]) was 16.95%.

For `CC(=O)[O-].CC(=O)[O-].[Sr+2]` [10 mM Sr acetate, Sr acetate], the “AVERAGE % CHANGE IN VEIN DIAMETER” value (vein of the inner elbow; [2]) was 7.35%.

With `O=S(=O)([O-])[O-].[Ca+2]` [10 mM CaSO4, CaSO4] the “AVERAGE % CHANGE IN VEIN DIAMETER” value (vein of the inner elbow; [2]) was 17.7%.

In the case of `O=S(=O)([O-])[O-].[Mn+2]` [10 mM MnSO4, MnSO4], the “AVERAGE % CHANGE IN VEIN DIAMETER” value (vein of the inner elbow; [2]) is reported as 0.0%.

With `[Cl][Cu][Cl]` [10 mM CuCl2, CuCl2] the “AVERAGE % CHANGE IN VEIN DIAMETER” value (vein of the inner elbow; [2]) was 10.5%.

For `O=C([O-])CC(O)(CC(=O)[O-])C(=O)[O-].O=C([O-])CC(O)(CC(=O)[O-])C(=O)[O-].[Mg+2].[Mg+2].[Mg+2]` [10 mM Mg citrate, Mg citrate], the “AVERAGE % CHANGE IN VEIN DIAMETER” value (vein of the inner elbow; [2]) was 4.2%.

With `[Cl-].[Cl-].[Mg+2]` [MgCl2] the “VENOUS FILL TIME” value [1, 4] was 158 s, the “% CHANGE FROM BASELINE” value [1, 4] was 190% and the “effect on venous fill time (in words)” value [1] was “substantial increases in venous filling time compared to baseline control”. For the same compound, the “AVERAGE % CHANGE IN VEIN DIAMETER” value (vein of the inner elbow; [2]) was 6.5%.

For `[Ca+2].[Cl-].[Cl-]` [10 mM CaCl2, CaCl2], the “AVERAGE % CHANGE IN VEIN DIAMETER” value (vein of the inner elbow; [2]) was 12.0%.
